# From patent US20230293539A1, “MLL1-WDR5 PROTEIN-PROTEIN INTERACTION INHIBITOR COMPOUNDS AND USES THEREOF” (HUYABIO International, LLC, priority 2022, published 2023)
# Experiments:
# [1] = Metabolite ID in plasma; type: in vitro ADME; settings: HBI-2375 and metabolites in Human plasma
# [2] = biological target: T1, BRD4-BD1 (Homo sapiens, UniProt O60885); test: Selectivity panel (Table 3); type: binding
# T1 construct: BRD4-BD1
# [3] = Metabolite ID in plasma; type: in vitro ADME; settings: HBI-2375 and metabolites in Dog plasma
# [4] = Metabolite ID in plasma; type: in vitro ADME; settings: HBI-2375 and metabolites in Mouse plasma
# [5] = Dog PK (oral); type: in vivo, Beagle dogs; settings: for Cmax / AUC(0-t) / half-life: Beagle, plasma
# Protocol: Dog PK: Fasted or fed non-naïve Beagle dogs (Marshall Bioresources, Beijing, China) were administered a single intravenous bolus or oral gavage administration of test compounds at respective doses. Blood samples for plasma isolation were collected from a peripheral vessel, from restrained, non-sedated animals at the respective sampling time points. The quantification of compound concentrations in dog plasma was quantified using LC-MS/MS method. Plasma concentration versus time data was analyzed by non-compartmental mode approaches using the WinNonlin software program (version 6.3 or above, Pharsight). Pharmacokinetic parameters, including C0, CL, Vdss, Cmax, Tmax T1/2, AUC0-last, AUC0-inf, MRT0-last, MRT0-inf, bioavailability (%) for IV and PO groups were calculated. See FIGS. 9A, […], 9C and FIGS. 10A, 10B, 10C, and 10D.
structure (smiles),measurement,setting,value
"Cc1c(F)c(N)cc(C(=O)Nc2cc(-n3cc(C(=O)N4CCN(C)CC4)nn3)c(F)cc2N2C[C@@H](C)N(C)[C@@H](C)C2)c1Cl [HYBI-084, 5-amino-2-chloro-4-fluoro-N-(4-fluoro-5-(4-(4-methylpiperazine-1-carbonyl)-1H-1,2,3-triazol-1-yl)-2-((3S,5R)-3,4,5-trimethylpiperazin-1-yl)phenyl)-3-methylbenzamide]",Relative Abundance (UV Peak Area % Total),[1],97.20%
same,IC50,[2],> 1000 nM
same,Relative Abundance (UV Peak Area % Total),[3],97.31%
same,Relative Abundance (UV Peak Area % Total),[4],92.78%
same,F,[5]; 1.5 mpk,11.4%
same,F,[5]; 4.5 mpk,37.7%
same,Cmax,"[5]; 1.5 mg/kg, 1.5 mpk",8.4 nM
same,Cmax,"[5]; 4.5 mg/kg, 4.5 mpk",47.6 nM
same,AUC(0-t),"[5]; 1.5 mg/kg, 1.5 mpk",0.0466 µM·h
same,half-life,"[5]; 1.5 mg/kg, 1.5 mpk",7.5 h
same,AUC(0-t),"[5]; 4.5 mg/kg, 4.5 mpk",0.459 µM·h
same,half-life,"[5]; 4.5 mg/kg, 4.5 mpk",6.3 h
